Reference: patent US7078169B2 (priority 1999, dated 2006)

Legend:
yjl105w mutant strain = experiment: Lovastatin drug disk on yeast lawn, yjl105w mutant vs wild-type; format: cell-based, S. cerevisiae; conditions: 250 μg on sterile disk, 5×10^6 cells, overnight at 30° C.
Description: FIG. 4. Effects of lovastatin on wild-type and YJL105w knockout yeast strains. 10 μl of a 25 mg/ml solution of lovastatin (250 μg) in ethanol was applied to a sterile drug disk on a lawn of yeast (5×10^6 cells, ABY363). The plates were incubated overnight at 30° C.
To test whether YJL105w has a role in isoprenoid metabolism, a yjl105w mutant where the entire ORF was replaced with the kanamycin resistance gene was constructed. Approximately 5×10^6 cells of the yjl105w mutant strain and a wild-type control strain (ABY363, MATα his3Δ1 leu2Δ0 lys2Δ0 ura3Δ0) were plated onto separate non-selective agar plates. The sterol biosynthetic inhibitor lovastatin (250 μg) was applied to a sterile disk on each lawn and the cells were allowed to grow overnight at 30° C.

HES1 reporter gene = format: cell-based, S. cerevisiae; conditions: ABY140 (pdr5::KanMX yor1::KanMX) vs ABY11 wild-type
Description: To further test the viability of this indicator gene in a high-throughput screen, the regulation of the HES1 reporter was tested in two different strain backgrounds ABY11 (MATa leu2Δ1 ura3-52) is a wild-type strain.
The ABY140 [HES1] strain was used to screen approximately 16,800 chemicals from a combinatorial chemistry library. […] Twenty-four of these chemical were further tested in a secondary screen for the ability to induce four additional indicator (also referred to as reporter) genes whose expression are also coordinately regulated with genes encoding ergosterol biosynthetic enzymes.

HES1 reporter = conditions: 384-well array, various concentrations, 30° C., 24 hrs
Description: Cells were grown to mid-log phase at 30° C. in casamino acids medium (0 67% yeast nitrogen base, 2% glucose, 2% casamino acids). Cell density was adjusted prior to incubation in various concentrations of drug Arrays were incubated at 30° C. for 24 hrs prior to imaging.

| Compound | resistance of yjl105w mutant strain to treatment relative to wild-type control (ABY363) (yjl105w mutant strain) | sensitivity of HES1 reporter gene induction in ABY140 compared to ABY11 (HES1 reporter gene) | induction of the HES1 reporter (HES1 reporter) |
| --- | --- | --- | --- |
| CC[C@H](C)C(=O)O[C@H]1C[C@@H](C)C=C2C=C[C@H](C)[C@H](CC[C@@H]3C[C@@H](O)CC(=O)O3)[C@H]21 [lovastatin] | significantly more resistant |  |  |
| Nc1[nH]c(=O)ncc1F [Flucytosine] |  | not |  |
| Clc1ccc(COC(Cn2ccnc2)c2ccc(Cl)cc2Cl)cc1 (stereo not shown) [Econazole] |  | more sensitive | specifically induced |
